# Data: US10294202B2, “Pyrrolidinones as herbicides” (FMC Corporation, priority 2013, dated 2019)
# Key:
# [1] = system: pigweed; experiment: Test C pre-/postemergence herbicide test; type: in vivo, Amaranthus retroflexus
# Procedure, shortened: (§1)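 Test compounds, formulated in a surfactant-containing non-phytotoxic solvent blend, are applied to seeded loam/sand soil (preemergence) and to young plants at the 1- to 4-leaf stage in peat-based medium (postemergence). Plants stay 13 to 15 days under greenhouse conditions, then are scored visually relative to controls, 0 = no effect, 100 = complete control.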
# [2] = system: foxtail, giant; experiment: Test C pre-/postemergence herbicide test; type: in vivo, Setaria faberii
# Procedure, shortened: as §1
# [3] = system: corn; experiment: Test C pre-/postemergence herbicide test; type: in vivo, Zea mays
# Procedure, shortened: as §1
# [4] = system: johnsongrass; experiment: Test C pre-/postemergence herbicide test; type: in vivo, Sorghum halepense
# Procedure, shortened: as §1
# [5] = system: lambsquarters; experiment: Test C pre-/postemergence herbicide test; type: in vivo, Chenopodium album
# Procedure, shortened: as §1
# [6] = system: pigweed; experiment: Test A pre-/postemergence herbicide test; type: in vivo, Amaranthus retroflexus
# Procedure, shortened: (§2)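 Planted in loam–sand blend; treated the same day preemergence by directed soil spray, while separately grown plants at one- to two-leaf stage got postemergence spray. Compared visually with untreated controls after approximately 10 days; 100 means complete control.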
# [7] = system: oilseed rape; experiment: Test C pre-/postemergence herbicide test; type: in vivo, Brassica napus
# Procedure, shortened: as §1
# [8] = system: wheat; experiment: Test A pre-/postemergence herbicide test; type: in vivo, Triticum aestivum; conditions: Postemergence
# Procedure, shortened: as §2
# [9] = system: waterhemp; experiment: Test C pre-/postemergence herbicide test; type: in vivo, Amaranthus rudis
# Procedure, shortened: as §1
# [10] = system: nutsedge, yellow; experiment: Test C pre-/postemergence herbicide test; type: in vivo, Cyperus esculentus
# Procedure, shortened: as §1
# [11] = system: velvetleaf; experiment: Test C pre-/postemergence herbicide test; type: in vivo, Abutilon theophrasti
# Procedure, shortened: as §1
# [12] = system: galium; experiment: Test C pre-/postemergence herbicide test; type: in vivo, Galium aparine; conditions: Preemergence
# Procedure, shortened: as §1
# [13] = Postemergence, 31 g ai/ha, scale 0 to 100 (0 no effect, 100 complete control)
# [14] = Postemergence, 62 g ai/ha, scale 0 (no effect) to 100 (complete control)
# [15] = Postemergence, 125 g ai/ha, scale 0 to 100 (0 no effect, 100 complete control)
# [16] = Postemergence, 250 g ai/ha, scale 0 to 100 (0 no effect, 100 complete control)
# [17] = Preemergence, 31 g ai/ha, scale 0 to 100, 0 is no effect and 100 is complete control
# [18] = Preemergence, 62 g ai/ha, scale 0 to 100 (0 no effect, 100 complete control)
# [19] = Preemergence, 125 g ai/ha, scale 0 to 100
smiles,measurement,setting,value
O=C1NCC(c2cccc(OC(F)F)c2)C1C(=O)Nc1ccc(F)c(F)c1F (centres unmarked) [Compound 325],"Plant response rating, Pigweed",[1]; [13],40
same,"Plant response rating, Pigweed",[1]; [14],55
same,"Plant response rating, Pigweed",[1]; [15],50
same,"Plant response rating, Pigweed",[1]; [16],65
same,Pigweed plant response rating,[1]; [17],65
same,Pigweed plant response rating,[1]; [18],65
same,"Plant response rating, Pigweed",[1]; [19],75
same,"Plant response rating, Foxtail, Giant",[2]; [13],0
same,"Plant response rating, Foxtail, Giant",[2]; [14],35
same,"Plant response rating, Foxtail, Giant",[2]; [15],65
same,"Plant response rating, Foxtail, Giant",[2]; [16],75
same,"Foxtail, Giant plant response rating",[2]; [17],90
same,"Foxtail, Giant plant response rating",[2]; [18],95
same,"Plant response rating, Foxtail, Giant",[2]; [19],98
same,"Plant response rating (scale of 0 to 100), Foxtail, Giant","[2]; Preemergence, 250 g ai/ha",95
same,"Plant response rating, Corn",[3]; [13],0
same,"Plant response rating, Corn",[3]; [14],0
same,"Plant response rating, Corn",[3]; [15],10
same,"Plant response rating, Corn",[3]; [16],35
same,Corn plant response rating,[3]; [17],10
same,Corn plant response rating,[3]; [18],60
same,"Plant response rating, Corn",[3]; [19],70
same,"Plant response rating (scale of 0 to 100), Corn","[3]; Preemergence, 250 g ai/ha",85
same,"Plant response rating, Johnsongrass",[4]; [13],0
same,"Plant response rating, Johnsongrass",[4]; [14],0
same,"Plant response rating, Johnsongrass",[4]; [15],0
same,"Plant response rating, Johnsongrass",[4]; [16],0
same,Johnsongrass plant response rating,[4]; [17],20
same,Johnsongrass plant response rating,[4]; [18],35
same,"Plant response rating, Johnsongrass",[4]; [19],75
same,"Plant response rating (scale of 0 to 100), Johnsongrass","[4]; Preemergence, 250 g ai/ha",75
same,"Plant response rating, Lambsquarters",[5]; [13],20
same,"Plant response rating, Lambsquarters",[5]; [14],45
same,"Plant response rating, Lambsquarters",[5]; [15],70
same,"Plant response rating, Lambsquarters",[5]; [16],65
same,Lambsquarters plant response rating,[5]; [17],45
same,Lambsquarters plant response rating,[5]; [18],70
same,"Plant response rating, Lambsquarters",[5]; [19],80
same,"Plant response rating (scale of 0 to 100), Lambsquarters","[5]; Preemergence, 250 g ai/ha",80
same,"Plant response rating, Pigweed","[6]; Postemergence, 125 g ai/ha, visual rating on 0 to 100 scale (0 no effect, 100 complete control), approx. 10 days",40
same,"Plant response rating, Pigweed","[6]; Postemergence, 500 g ai/ha, 0 to 100 scale (0 no effect, 100 complete control)",50
same,"Plant response rating, Pigweed","[6]; Preemergence, 125 g ai/ha, 0 to 100 scale where 0 is no effect and 100 is complete control",30
same,Pigweed plant response rating,"[6]; Preemergence, 500 g ai/ha, visual rating on 0 to 100 scale (0 no effect, 100 complete control)",60
same,"Plant response rating, Oilseed Rape",[7]; [13],0
same,"Plant response rating, Oilseed Rape",[7]; [14],0
same,"Plant response rating, Oilseed Rape",[7]; [15],50
same,"Plant response rating, Oilseed Rape",[7]; [16],60
same,Oilseed Rape plant response rating,[7]; [17],0
same,Oilseed Rape plant response rating,[7]; [18],65
same,"Plant response rating, Oilseed Rape",[7]; [19],85
same,"Plant response rating (scale of 0 to 100), Oilseed Rape","[7]; Preemergence, 250 g ai/ha",90
same,"Plant response rating, Wheat","[8]; 125 g ai/ha, visual rating on 0 to 100 scale (0 no effect, 100 complete control), approx. 10 days",60
same,"Plant response rating, Wheat","[8]; 500 g ai/ha, 0 to 100 scale (0 no effect, 100 complete control)",80
same,"Plant response rating, Waterhemp",[9]; [13],0
same,"Plant response rating, Waterhemp",[9]; [14],0
same,"Plant response rating, Waterhemp",[9]; [15],25
same,"Plant response rating, Waterhemp",[9]; [16],35
same,Waterhemp plant response rating,[9]; [18],75
same,"Plant response rating, Waterhemp",[9]; [19],80
same,"Plant response rating, Nutsedge, Yellow",[10]; [13],0
same,"Plant response rating, Nutsedge, Yellow",[10]; [14],0
same,"Plant response rating, Nutsedge, Yellow",[10]; [15],0
same,"Plant response rating, Nutsedge, Yellow",[10]; [16],0
same,"Nutsedge, Yellow plant response rating",[10]; [17],0
same,"Nutsedge, Yellow plant response rating",[10]; [18],0
same,"Plant response rating, Nutsedge, Yellow",[10]; [19],0
same,"Plant response rating (scale of 0 to 100), Nutsedge, Yellow","[10]; Preemergence, 250 g ai/ha",0
same,"Plant response rating, Velvetleaf",[11]; [13],0
same,"Plant response rating, Velvetleaf",[11]; [14],15
same,"Plant response rating, Velvetleaf",[11]; [15],20
same,"Plant response rating, Velvetleaf",[11]; [16],40
same,Velvetleaf plant response rating,[11]; [18],35
same,"Plant response rating, Velvetleaf",[11]; [19],55
same,Galium plant response rating,"[12]; 31 g ai/ha, scale 0 to 100, 0 is no effect and 100 is complete control",0
same,Galium plant response rating,"[12]; 62 g ai/ha, scale 0 to 100 (0 no effect, 100 complete control)",20
same,"Plant response rating, Galium","[12]; 125 g ai/ha, scale 0 to 100",50
same,"Plant response rating (scale of 0 to 100), Galium",[12]; 250 g ai/ha,80
